Laboratory results taken from PubChem BioAssay (NCI).
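Growth conditions: 96-well plates. Treatment: test compound, 48 hours, 5 concentrations. Analysis: linear interpolation between bracketing concentrations; unreached endpoints set to highest concentration. GI50: concentration for 50% inhibition of growth. The concentration for full growth arrest is given as TGI.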

Experiments:
Assay in all cases: NCI tumour cell line growth inhibition, 48 h
SN12C renal = system: SN12C renal
SF-539 CNS = system: SF-539 CNS
EKVX NSCLC = system: EKVX NSCLC
MOLT-4 leukemia = system: MOLT-4 leukemia
SF-268 CNS = system: SF-268 CNS
A549 NSCLC = system: A549 NSCLC
A498 renal = system: A498 renal
U251 CNS = system: U251 CNS
UO-31 renal = system: UO-31 renal
SR leukemia = system: SR leukemia

Row | Structure (SMILES) | TGI (SN12C renal) | TGI (SF-539 CNS) | TGI (EKVX NSCLC) | TGI (MOLT-4 leukemia) | TGI (SF-268 CNS) | TGI (A549 NSCLC) | TGI (A498 renal) | TGI (U251 CNS) | TGI (UO-31 renal) | TGI (SR leukemia) | GI50 (SN12C renal) | GI50 (SF-539 CNS) | GI50 (EKVX NSCLC) | GI50 (MOLT-4 leukemia) | GI50 (SF-268 CNS) | GI50 (A549 NSCLC) | GI50 (A498 renal) | GI50 (U251 CNS) | GI50 (UO-31 renal) | GI50 (SR leukemia)
1 | COc1ccc(/C=C(/C(=O)O)c2cc(OC)c(OC)c(OC)c2)cc1 | > 100 µM | 51.2 µM | > 100 µM | > 100 µM | > 100 µM | > 100 µM | > 100 µM | > 100 µM | > 100 µM | > 100 µM |  |  |  |  |  |  |  |  |  | 
2 | COc1ccc(-n2cc(-c3ccc(OC)c(OC)c3)[nH]c2=S)cc1Cl | > 100 µM | > 100 µM | > 100 µM | > 100 µM | > 100 µM | > 100 µM | > 100 µM | > 100 µM | > 100 µM | > 100 µM | > 100 µM | 39.4 µM | 41.5 µM | 77.4 µM | 58.7 µM | > 100 µM | > 100 µM | 41.1 µM | > 100 µM | > 100 µM
3 | COc1ccccc1NC(=O)c1ccc(/C=C/C(=O)c2nccn2C)cc1 | 1.56 µM | 1.07 µM | 1.89 µM | 2.22 µM | 1.97 µM | 8.75 µM | 1.49 µM | 1.02 µM | 0.714 µM | 7 µM | 0.592 µM | 0.495 µM | 0.591 µM | 0.711 µM | 0.631 µM | 0.74 µM | 0.555 µM | 0.434 µM | 0.357 µM | 0.242 µM
4 | CCN1CCN(c2nc(NCCNc3ccnc4cc(Cl)ccc34)c3ccccc3n2)CC1 | 2.88 µM | 3.36 µM | 11.6 µM | 7.17 µM | 13.3 µM | 8.48 µM | 3.35 µM | 10.1 µM | 3.3 µM | 0.898 µM | 1.21 µM | 1.83 µM | 2.62 µM | 2.13 µM | 2.51 µM | 2.21 µM | 1.68 µM | 2.28 µM | 1.53 µM | 0.287 µM
5 | CN(C)CCNc1nc2ccccc2c2[nH]c3ccccc3c12 | 2.82 µM | 3.06 µM | 14.3 µM | 2.37 µM | 1.82 µM | 10.1 µM | 11 µM | 2.04 µM | 13 µM | 1.31 µM | 0.693 µM | 0.891 µM | 1.7 µM | 0.571 µM | 0.293 µM | 0.37 µM | 5.32 µM | 0.386 µM | 1.01 µM | 0.341 µM
6 | CN1CCCNCCN(CCc2ccccn2)CCCN(C)CC1 | > 100 µM | > 100 µM | > 100 µM | > 100 µM | > 100 µM | > 100 µM | > 100 µM | > 100 µM | > 100 µM | 57.3 µM |  |  |  |  |  |  |  |  |  | 
7 | ClCc1ccccc1CSc1ncnc2nc[nH]c12 | > 60 µM | > 60 µM | > 60 µM | > 60 µM | > 60 µM |  | > 60 µM | > 60 µM | > 60 µM | > 60 µM | > 60 µM | > 60 µM | > 60 µM | > 60 µM | > 60 µM |  | 54.1 µM | > 60 µM | > 60 µM | > 60 µM
8 | COC(=O)c1c2c(c(C)[n+]([O-])c1C)C(=O)C=CC2=O | 3.1 µM | 3.2 µM | 5.12 µM | 4.65 µM | 5.52 µM | 11.6 µM | 13.9 µM | 2.83 µM | 3.39 µM | 8.19 µM | 1.62 µM | 1.8 µM | 2.02 µM | 1.69 µM | 2.05 µM | 3.12 µM | 3.58 µM | 1.48 µM | 1.69 µM | 2.28 µM
9 | CN(C)c1ccc2c(c1)oc(=O)c1ccccc12 | 25.8 µM | 35.5 µM | 52.3 µM | 73.3 µM | 22.7 µM | 34.6 µM | 33 µM | 24.3 µM |  | 21.5 µM |  |  |  |  |  |  |  |  |  | 
10 | O=C1CCC(NC(=O)c2ccccc2)C(=O)N1 (stereo unspecified) | > 100 µM | > 100 µM | > 100 µM | 16.9 µM | > 100 µM | > 100 µM | > 100 µM | > 100 µM | > 100 µM | > 100 µM |  |  |  |  |  |  |  |  |  | 
11 | OC(c1cccc(C(F)(F)F)c1)c1cnccc1NC1CCCCCC1 (stereo unspecified) | 4.08 µM | 3.15 µM | 4.68 µM | 6.19 µM | 13.8 µM | 11.4 µM | 15.9 µM | 3.43 µM | 2.97 µM | 6.51 µM | 1.87 µM | 1.71 µM | 1.98 µM | 2.3 µM | 3.29 µM | 3.58 µM | 3.68 µM | 1.83 µM | 1.35 µM | 2.2 µM
12 | CCCCn1/c(=N/C(=S)N(C)C)ss/c1=N\C(=S)N(C)C | > 100 µM | > 100 µM | > 100 µM | > 100 µM | > 100 µM | > 100 µM | > 100 µM | > 100 µM | > 100 µM | > 100 µM |  |  |  |  |  |  |  |  |  | 
13 | CCOC(=O)CCCO | > 100 µM | > 100 µM | > 100 µM | > 100 µM | > 100 µM | > 100 µM | > 100 µM | > 100 µM | > 100 µM | > 100 µM |  |  |  |  |  |  |  |  |  | 
14 | CN(C)CCNC(=O)c1cccc2nc3c(Cl)cccc3nc12 | 49.5 µM | 16.8 µM | 32.9 µM | 10.4 µM |  | > 35.6 µM | 16.9 µM | 30.5 µM | > 40.5 µM | > 100 µM |  |  |  |  |  |  |  |  |  | 
15 | CC1=C[C@@H]2Cc3occc3C(C)(C)[C@@H]2CC1 | 29.8 µM | 58.7 µM | 33 µM | 39.4 µM | 38.3 µM | 49.6 µM | 49.6 µM | 32.7 µM | 33.8 µM | 32.7 µM |  |  |  |  |  |  |  |  |  | 
16 | Cc1cc(C)nc(NS(=O)(=O)c2ccc(NC(=O)c3cccc4c(=O)c5ccccc5[nH]c34)cc2)n1 | 32.8 µM | 35.4 µM | 86.3 µM | > 100 µM | 48.2 µM | 51.2 µM | 34.9 µM | 32.4 µM | 45.7 µM | > 100 µM |  |  |  |  |  |  |  |  |  | 
